Patent publication US20240043470A1, “MACROCYCLIC COMPOUNDS AS PROTEASOME INHIBITORS” (CORNELL UNIVERSITY, priority 2017, published 2024)
Where two headings read alike, the source gives them in different places.

What was measured:
[1] = 16-membered ring
[2] = rcm bond
β5c of hu c-20S = β5c of hu c-20S (Homo sapiens (Human), UniProt P20618+P28074); assay: IC50 determination against β5c of human constitutive proteasome (suc-LLVY-AMC hydrolysis); assay type: biochemical; details: 0.2 nM c-20S, 25 μM suc-LLVY-AMC;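 further: IC50 obtained by fitting initial reaction velocities to a dose-dependent inhibition model, with SDS present as proteasome activator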
β5i of hu i-20S = β5i of hu i-20S (Homo sapiens (Human), UniProt P20618+P28062); assay: IC50 determination against β5i of human immunoproteasome (Ac-ANW-AMC hydrolysis); assay type: biochemical; details: β5i, 0.4 nM i-20S, 15 μM Ac-ANW-AMC;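 further: enzyme activity taken as the initial reaction velocity per well, with SDS added to activate the proteasome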

Row | Molecule | IC50 (β5c of hu c-20S) [µM] | IC50 (β5i of hu i-20S) [µM] | other results
1 | Ac-Gly(allyl)-hPhe-Phe(3-OAllyl)-NHCH2CF3? | – | – | ring closure, isolated yield ([1]; the molecule shown is the open-chain precursor, rcm bond, Grubbs II, DCM, 24.9 mM, 40.0 °C): 88.8%
2 | CC(=O)N[C@H]1Cc2cccc(c2)OCC=CC[C@@H](C(=O)NCC(F)(F)F)NC(=O)[C@H](CCc2ccccc2)NC1=O | – | – | ring closure, yield of all isomers ([2]; from C=CCOc1cccc(C[C@H](NC(C)=O)C(=O)N[C@@H](CCc2ccccc2)C(=O)N[C@@H](CC=C)C(=O)NCC(F)(F)F)c1, Grubbs 2nd generation catalyst, DCM, 5.33 mM, 40.0 °C, 4.0 h): 47%
3 | O=C1CCc2cccc(c2)OCC=CC[C@@H](C(=O)NC2CCCC2)NC(=O)[C@H](CC(=O)N2CCCC2C2CC2)N1 (stereo partly drawn) | – | – | ring closure, yield of all isomers ([2]; from C=CCOc1cccc(CCC(=O)N[C@@H](CC(=O)N2CCCC2C2CC2)C(=O)N[C@@H](CC=C)C(=O)NC2CCCC2)c1, Grubbs 2nd generation, 1,2-dichloroethane, 4.09 mM, 50.0 °C, 12.0 h): 46.7%
4 | (hex-5-enoyl)-Asp(OBn)-((2S)-2-aminonon-8-enoic acid)-OtBu? | – | – | ring closure, isolated yield ([1]; the molecule shown is the open-chain precursor, rcm bond, Grubbs II, toluene, 1.27 mM, 40.0 °C): 92.6%
5 | CC(=O)N[C@H]1CC=CCOc2cccc(c2)C[C@@H](C(=O)NCC(F)(F)F)NC(=O)[C@H](CCc2ccccc2)NC1=O | – | – | ring closure, yield of all isomers ([2]; from C=CCOc1cccc(C[C@H](NC(=O)[C@H](CCc2ccccc2)NC(=O)[C@H](CC=C)NC(C)=O)C(=O)NCC(F)(F)F)c1, Grubbs 2nd generation catalyst, DCM, 24.9 mM, 40.0 °C, 4.0 h): 88.8%
6 | (5S,8S,11S)-11-Acetamido-7,10-dioxo-8-propyl-N-(2,2,2-trifluoroethyl)-2-oxa-6,9-diaza-1,3(1,3)-dibenzenacyclododecaphane-5-carboxamide | – | – | ring closure, isolated yield ([1]; amide bond, HATU/DIEA, DMF, […], 0.0 °C): 18.7%
7 | O=C1CCc2cccc(c2)OCC=CC[C@@H](C(=O)NC2CCCC2)NC(=O)[C@H](CCc2ccc(F)cc2)N1 | – | – | ring closure, yield of all isomers ([2]; from C=CCOc1cccc(CCC(=O)N[C@@H](CCc2ccc(F)cc2)C(=O)N[C@@H](CC=C)C(=O)NC2CCCC2)c1, Grubbs catalyst 2nd generation, 1,2-dichloroethane, […], 60.0 °C, 12.0 h): 65%
8 | CC(C)(C)OC(=O)[C@@H]1CCCCCC=CCCCC(=O)N[C@@H](CC(=O)OCc2ccccc2)C(=O)N1 | – | – | ring closure, yield of all isomers ([2]; from C=CCCCCC[C@H](NC(=O)[C@H](CC(=O)OCc1ccccc1)NC(=O)CCCC=C)C(=O)OC(C)(C)C, Grubbs 2nd Generation catalyst, toluene, 1.27 mM, 40.0 °C, 16.0 h): 92.6%
9 | (2-benzylhex-5-enoyl)-Asp(OBn)-(2-aminonon-8-enoic acid)-OMe? | – | – | ring closure, isolated yield ([1]; the molecule shown is the open-chain precursor, rcm bond, Grubbs II, DCE, […], 50.0 °C): 53%
10 | COC(=O)[C@@H]1CCCCCC=CCCC(Cc2ccccc2)C(=O)N[C@@H](CC(=O)OCc2ccccc2)C(=O)N1 (stereo partly drawn) | – | – | ring closure, yield of all isomers ([2]; from C=CCCCCC[C@H](NC(=O)[C@H](CC(=O)OCc1ccccc1)NC(=O)C(CCC=C)Cc1ccccc1)C(=O)OC, Grubbs 2nd generation, 1,2-dichloroethane, 10.75 mM, 50.0 °C, 24.0 h): 53%
11 | Cn1cc(CNC(=O)[C@@H]2Cc3cccc(c3)Oc3cccc(c3)C[C@H](NC(=O)CO)C(=O)N[C@@H](CCc3ccccc3)C(=O)N2)cn1 [Compound 1-05] | > 100 | 14.8 | –
12 | CC(=O)N[C@H]1Cc2cccc(c2)OC/C=C/C[C@@H](C(=O)NCC(F)(F)F)NC(=O)[C@H](CCc2ccccc2)NC1=O [Compound 3-01, (7S,10S,13S,E)-13-Acetamido-9,12-dioxo-10-phenethyl-N-(2,2,2-trifluoroethyl)-2-oxa-8,11-diaza-1(1,3)-benzenacyclotetradecaphan-4-ene-7-carboxamide] | 0.78 | 15.6 | –
13 | CN1C(=O)[C@@H](N2CCCC2=O)Cc2cccc(c2)Oc2cccc(c2)C[C@@H](C(=O)NCC(F)(F)F)NC(=O)[C@@H]1CCc1ccccc1 [Compound 1-64] | > 100 | 2.72 | –
14 | O=C1CCCCCCCCCC[C@@H](C(=O)NCc2cccc3ccccc23)NC(=O)[C@H](CC(=O)N2CCCC2)N1 [Compound 4-06, (2S,5S)—N-(1-Naphthylmethyl)-3,16-dioxo-2-(2-oxo-2-pyrrolidin-1-yl-ethyl)-1,4-diazacyclohexadecane-5-carboxamide] | > 100 | 3.52 | –
15 | O=C1CCc2cccc(c2)OCCCC[C@@H](C(=O)NC2CCCC2)NC(=O)[C@H](CC(=O)N2CCCC2C2CC2)N1 (single isomer, unassigned) [Compound 3-45-B] | 3.6 | > 100 | –
16 | O=C(NC1CCCC1)[C@@H]1CC=CCOc2cccc(c2)C[C@H](N2CCCC2=O)C(=O)N[C@@H](CCN2CCC(F)(F)CC2)C(=O)N1 | – | – | ring closure, yield of all isomers ([2]; from C=CCOc1cccc(C[C@@H](C(=O)N[C@@H](CCN2CCC(F)(F)CC2)C(=O)N[C@@H](CC=C)C(=O)NC2CCCC2)N2CCCC2=O)c1, Grubbs catalyst 2nd Generation, 1,2-dichloroethane, 5.07 mM, 60.0 °C, 12.0 h): 61.6%
17 | O=C(NCc1ccccc1)[C@@H]1Cc2cccc(c2)Oc2cccc(c2)C[C@H](N2CCCC2)C(=O)N[C@@H](CCc2ccccc2)C(=O)N1 [Compound 1-17] | 42.5 | 6.6 | –
18 | O=C1CCc2cccc(c2)OCCCC[C@@H](C(=O)NC2CCCC2)NC(=O)[C@H](CC(=O)N2CCCC2C2CC2)N1 (single isomer, unassigned) [Compound 3-45-A] | 12.3 | > 100 | –
19 | O=C(CC(F)(F)F)N[C@H]1Cc2cccc(c2)Oc2cccc(c2)C[C@@H](C(=O)NCC(F)(F)F)NC(=O)[C@H](CCc2ccccc2)NC1=O [Compound 1-55, (5S,8S,11S)-7,10-Dioxo-8-phenethyl-N-(2,2,2-trifluoroethyl)-11-(3,3,3-trifluoropropanamido)-2-oxa-6,9-diaza-1,3(1,3)-dibenzenacyclododecaphane-5-carboxamide] | > 100 | > 100 | –
